What all share (test): Test Example-1: herbicidal effect by a treatment before weeds are generated under submerged conditions
Format in all cases: in vivo
What all share (conditions): 500 g a.i/ha, pre-emergence treatment, about 15 days after treatment, score 0-5

Assay [1] relates to Echinochloa oryzicola (barnyard grass). The protocol:
(§1) Using the formulation prepared according to the methods described above, the herbicidal effect of the bicyclic pyrazolinone derivative of the invention according to the methods shown in Test Examples below was examined. The herbicidal effect with respect to the test weeds or the phytotoxicity with respect to the test crops was examined according to the following criteria, and evaluated in six stage scores of 0 to 5.
(§2) A plastic cup of 30 cm^2 was filled with paddy soil, soil puddling was performed, seeds of Echinochloa oryzicola (barnyard grass), Cyperus difformis (smallflower umbrella plant), Monochoria vaginalis (monochoria), Scirpus juncoides (bulrush), and Eleocharis acicularis (needle spikerush), and Lindernia procumbens (common false pimpernel), Rotala indica (indian toothcup), Elatine triandra (waterwort) as other annual broad leaf weeds were seeded therein, and kept in a submerged state. A wettable powder or an emulsifiable concentrate of the compound of the present invention prepared according to Formulation Example was diluted on the weed seeding day, and a submersing treatment was performed so as to be a predetermined dosage. The herbicidal effect with respect to the test weeds about 15 days after the treatment was evaluated according to the evaluation criteria in six stages of 0 to 5 described above.

The subject of assay [2] is Scirpus juncoides (bulrush). The protocol:
as §1, §2

Assay [3] deals with Cyperus difformis (smallflower umbrella plant). The protocol: as §1, §2
Assay [4] relates to Eleocharis acicularis (needle spikerush). The protocol:
as §1, §2

Assay [5] relates to other annual broad leaf weeds (Lindernia procumbens, Rotala indica, Elatine triandra). The protocol:
as §1, §2

Assay [6] concerns Monochoria vaginalis (monochoria). The protocol:
as §1, §2

Turning to `CC(C)CCOc1cc(-c2c(Cl)n3n(c2=O)CCCC3)c(F)cc1Cl` [Example 1-159], the “Herbicidal effect Echinochloa oryzicola” value in assay [1] is reported as 5 (Herbicidal effect/phytotoxicity was 90% or greater). Further, the “Herbicidal effect Scirpus juncoides” value in assay [2] is given as 5 (Herbicidal effect/phytotoxicity was 90% or greater). The “Herbicidal effect Cyperus difformis” value in assay [3] is reported as 5 (Herbicidal effect/phytotoxicity was 90% or greater). Moreover, the “Herbicidal effect Eleocharis acicularis” value in assay [4] was 5 (Herbicidal effect/phytotoxicity was 90% or greater). Also, the “Herbicidal effect Broadleaf weed” value in assay [5] is recorded as 5 (Herbicidal effect/phytotoxicity was 90% or greater). In addition, the “Herbicidal effect Monochoria vaginalis” value in assay [6] is recorded as 5 (Herbicidal effect/phytotoxicity was 90% or greater).
Regarding `C=CC(F)(F)Oc1cc(-c2c(Cl)n3n(c2=O)CCCC3)c(F)cc1Cl` [Example 1-206], the “Herbicidal effect Echinochloa oryzicola” value in assay [1] is on record as 5 (Herbicidal effect/phytotoxicity was 90% or greater). In assay [2], the “Herbicidal effect Scirpus juncoides” value is on record as 5 (Herbicidal effect/phytotoxicity was 90% or greater). In addition, the “Herbicidal effect Cyperus difformis” value in assay [3] is on record as 5 (Herbicidal effect/phytotoxicity was 90% or greater). The “Herbicidal effect Eleocharis acicularis” value in assay [4] is reported as 5 (Herbicidal effect/phytotoxicity was 90% or greater). For the same molecule, the “Herbicidal effect Broadleaf weed” value in assay [5] is 5 (Herbicidal effect/phytotoxicity was 90% or greater). In addition, the “Herbicidal effect Monochoria vaginalis” value in assay [6] is on record as 5 (Herbicidal effect/phytotoxicity was 90% or greater).
Regarding `O=c1c(-c2cc(OC3C=CCCC3)c(F)cc2F)c(Cl)n2n1CCCC2` (stereo not drawn) [Example 1-112], the “Herbicidal effect Echinochloa oryzicola” value in assay [1] is 5 (Herbicidal effect/phytotoxicity was 90% or greater). The “Herbicidal effect Scirpus juncoides” value in assay [2] is recorded as 5 (Herbicidal effect/phytotoxicity was 90% or greater). In addition, the “Herbicidal effect Cyperus difformis” value in assay [3] is reported as 5 (Herbicidal effect/phytotoxicity was 90% or greater). For the same molecule, the “Herbicidal effect Eleocharis acicularis” value in assay [4] is given as 5 (Herbicidal effect/phytotoxicity was 90% or greater). Also, the “Herbicidal effect Broadleaf weed” value in assay [5] is 5 (Herbicidal effect/phytotoxicity was 90% or greater). The “Herbicidal effect Monochoria vaginalis” value in assay [6] is 5 (Herbicidal effect/phytotoxicity was 90% or greater).
Consider `CCOC(=O)C=C(COc1cc(-c2c(Cl)n3n(c2=O)CCCC3)c(F)cc1Cl)OCC` (mixture of isomers) [Compound 2-19], for which, in assay [1], the “Herbicidal effect Echinochloa oryzicola” value was 5 (Herbicidal effect/phytotoxicity was 90% or greater). The “Herbicidal effect Scirpus juncoides” value in assay [2] is on record as 5 (Herbicidal effect/phytotoxicity was 90% or greater). Also, the “Herbicidal effect Cyperus difformis” value in assay [3] is given as 5 (Herbicidal effect/phytotoxicity was 90% or greater). Also, in assay [4], the “Herbicidal effect Eleocharis acicularis” value is listed as 5 (Herbicidal effect/phytotoxicity was 90% or greater). Further, the “Herbicidal effect Broadleaf weed” value in assay [5] was 5 (Herbicidal effect/phytotoxicity was 90% or greater). Besides, the “Herbicidal effect Monochoria vaginalis” value in assay [6] is listed as 5 (Herbicidal effect/phytotoxicity was 90% or greater).
For the molecule `COc1ccc(Oc2cc(-c3c(Cl)n4n(c3=O)CCCC4)c(F)cc2Cl)cc1` [Compound 3-7], the “Herbicidal effect Echinochloa oryzicola” value in assay [1] is recorded as 5 (Herbicidal effect/phytotoxicity was 90% or greater). In addition, the “Herbicidal effect Scirpus juncoides” value in assay [2] was 5 (Herbicidal effect/phytotoxicity was 90% or greater). Also, in assay [3], the “Herbicidal effect Cyperus difformis” value was 5 (Herbicidal effect/phytotoxicity was 90% or greater). For the same molecule, the “Herbicidal effect Eleocharis acicularis” value in assay [4] is 5 (Herbicidal effect/phytotoxicity was 90% or greater). Also, the “Herbicidal effect Broadleaf weed” value in assay [5] is 5 (Herbicidal effect/phytotoxicity was 90% or greater). For the same molecule, the “Herbicidal effect Monochoria vaginalis” value in assay [6] is 5 (Herbicidal effect/phytotoxicity was 90% or greater).
`CC(C)(C)OC(=O)COc1cc(-c2c(Cl)n3n(c2=O)CCCC3)c(F)cc1Cl` [Example 1-165]: in assay [1], the “Herbicidal effect Echinochloa oryzicola” value is given as 5 (Herbicidal effect/phytotoxicity was 90% or greater). The “Herbicidal effect Scirpus juncoides” value in assay [2] is listed as 5 (Herbicidal effect/phytotoxicity was 90% or greater). Moreover, in assay [3], the “Herbicidal effect Cyperus difformis” value is 5 (Herbicidal effect/phytotoxicity was 90% or greater). For the same molecule, the “Herbicidal effect Eleocharis acicularis” value in assay [4] is on record as 5 (Herbicidal effect/phytotoxicity was 90% or greater). In addition, the “Herbicidal effect Broadleaf weed” value in assay [5] is 5 (Herbicidal effect/phytotoxicity was 90% or greater). In addition, the “Herbicidal effect Monochoria vaginalis” value in assay [6] was 5 (Herbicidal effect/phytotoxicity was 90% or greater).
For the molecule `COc1cc(-c2c(Cl)n3n(c2=O)CCCCC3)c(Cl)cc1Cl` [Example 1-293], the “Herbicidal effect Echinochloa oryzicola” value in assay [1] is on record as 5 (Herbicidal effect/phytotoxicity was 90% or greater). In assay [2], the “Herbicidal effect Scirpus juncoides” value was 5 (Herbicidal effect/phytotoxicity was 90% or greater). For the same molecule, the “Herbicidal effect Cyperus difformis” value in assay [3] was 5 (Herbicidal effect/phytotoxicity was 90% or greater). In addition, the “Herbicidal effect Eleocharis acicularis” value in assay [4] is reported as 5 (Herbicidal effect/phytotoxicity was 90% or greater). The “Herbicidal effect Broadleaf weed” value in assay [5] was 5 (Herbicidal effect/phytotoxicity was 90% or greater). Further, in assay [6], the “Herbicidal effect Monochoria vaginalis” value is 5 (Herbicidal effect/phytotoxicity was 90% or greater).
As for `C=CCOc1ccc(Oc2cc(-c3c(Cl)n4n(c3=O)CCCC4)c(F)cc2Cl)cc1` [Compound 3-29], in assay [1], the “Herbicidal effect Echinochloa oryzicola” value was 5 (Herbicidal effect/phytotoxicity was 90% or greater). For the same molecule, the “Herbicidal effect Scirpus juncoides” value in assay [2] was 5 (Herbicidal effect/phytotoxicity was 90% or greater). The “Herbicidal effect Cyperus difformis” value in assay [3] is 5 (Herbicidal effect/phytotoxicity was 90% or greater). In assay [4], the “Herbicidal effect Eleocharis acicularis” value is 5 (Herbicidal effect/phytotoxicity was 90% or greater). The “Herbicidal effect Broadleaf weed” value in assay [5] is 5 (Herbicidal effect/phytotoxicity was 90% or greater). Moreover, the “Herbicidal effect Monochoria vaginalis” value in assay [6] is 5 (Herbicidal effect/phytotoxicity was 90% or greater).
With `C#CC(C)Oc1ccccc1Oc1cc(-c2c(Cl)n3n(c2=O)CCCC3)c(F)cc1Cl` (stereo not drawn) [Compound 3-31], the “Herbicidal effect Echinochloa oryzicola” value in assay [1] is listed as 5 (Herbicidal effect/phytotoxicity was 90% or greater). In addition, the “Herbicidal effect Scirpus juncoides” value in assay [2] was 5 (Herbicidal effect/phytotoxicity was 90% or greater). Further, the “Herbicidal effect Cyperus difformis” value in assay [3] is given as 5 (Herbicidal effect/phytotoxicity was 90% or greater). The “Herbicidal effect Eleocharis acicularis” value in assay [4] is given as 5 (Herbicidal effect/phytotoxicity was 90% or greater). Besides, the “Herbicidal effect Broadleaf weed” value in assay [5] is given as 5 (Herbicidal effect/phytotoxicity was 90% or greater). Also, the “Herbicidal effect Monochoria vaginalis” value in assay [6] is listed as 5 (Herbicidal effect/phytotoxicity was 90% or greater).
As to `COC(=O)C(C)Oc1cc(-c2c(Cl)n3n(c2=O)CCCC3)c(F)cc1Cl` (stereo not drawn) [Example 1-166], the “Herbicidal effect Echinochloa oryzicola” value in assay [1] was 5 (Herbicidal effect/phytotoxicity was 90% or greater). In addition, in assay [2], the “Herbicidal effect Scirpus juncoides” value is given as 5 (Herbicidal effect/phytotoxicity was 90% or greater). In assay [3], the “Herbicidal effect Cyperus difformis” value is recorded as 5 (Herbicidal effect/phytotoxicity was 90% or greater). Also, the “Herbicidal effect Eleocharis acicularis” value in assay [4] is 5 (Herbicidal effect/phytotoxicity was 90% or greater). In addition, the “Herbicidal effect Broadleaf weed” value in assay [5] is reported as 5 (Herbicidal effect/phytotoxicity was 90% or greater). Also, the “Herbicidal effect Monochoria vaginalis” value in assay [6] is reported as 5 (Herbicidal effect/phytotoxicity was 90% or greater).
Consider `COC(=O)C=C(COc1cc(-c2c(Cl)n3n(c2=O)CCCC3)c(Cl)cc1Cl)OC` (mixture of isomers) [Compound 2-5], for which the “Herbicidal effect Echinochloa oryzicola” value in assay [1] is 5 (Herbicidal effect/phytotoxicity was 90% or greater). Also, the “Herbicidal effect Scirpus juncoides” value in assay [2] is listed as 5 (Herbicidal effect/phytotoxicity was 90% or greater). For the same molecule, in assay [3], the “Herbicidal effect Cyperus difformis” value was 5 (Herbicidal effect/phytotoxicity was 90% or greater). Also, in assay [4], the “Herbicidal effect Eleocharis acicularis” value is listed as 5 (Herbicidal effect/phytotoxicity was 90% or greater). Moreover, the “Herbicidal effect Broadleaf weed” value in assay [5] is 5 (Herbicidal effect/phytotoxicity was 90% or greater). For the same molecule, in assay [6], the “Herbicidal effect Monochoria vaginalis” value was 5 (Herbicidal effect/phytotoxicity was 90% or greater).
As to `C#CCOc1cc(-c2c(F)n3n(c2=O)CCCCC3)c(Cl)cc1Cl` [Example 1-361], the “Herbicidal effect Echinochloa oryzicola” value in assay [1] is given as 5 (Herbicidal effect/phytotoxicity was 90% or greater). Also, in assay [2], the “Herbicidal effect Scirpus juncoides” value is 5 (Herbicidal effect/phytotoxicity was 90% or greater). Also, the “Herbicidal effect Cyperus difformis” value in assay [3] is listed as 5 (Herbicidal effect/phytotoxicity was 90% or greater). Moreover, in assay [4], the “Herbicidal effect Eleocharis acicularis” value is 5 (Herbicidal effect/phytotoxicity was 90% or greater). Moreover, the “Herbicidal effect Broadleaf weed” value in assay [5] is given as 5 (Herbicidal effect/phytotoxicity was 90% or greater). In assay [6], the “Herbicidal effect Monochoria vaginalis” value is on record as 5 (Herbicidal effect/phytotoxicity was 90% or greater).
With `O=c1c(-c2cc(Oc3c(F)cc(C(F)(F)F)cc3Cl)c(Cl)cc2F)c(Cl)n2n1CCCC2` [Example 1-254], the “Herbicidal effect Echinochloa oryzicola” value in assay [1] was 5 (Herbicidal effect/phytotoxicity was 90% or greater). In assay [2], the “Herbicidal effect Scirpus juncoides” value is listed as 5 (Herbicidal effect/phytotoxicity was 90% or greater). Moreover, the “Herbicidal effect Cyperus difformis” value in assay [3] is 5 (Herbicidal effect/phytotoxicity was 90% or greater). The “Herbicidal effect Eleocharis acicularis” value in assay [4] is 5 (Herbicidal effect/phytotoxicity was 90% or greater). For the same molecule, the “Herbicidal effect Broadleaf weed” value in assay [5] is recorded as 5 (Herbicidal effect/phytotoxicity was 90% or greater). Also, in assay [6], the “Herbicidal effect Monochoria vaginalis” value is 5 (Herbicidal effect/phytotoxicity was 90% or greater).

These data come from US9580444B2, “Polycyclic pyrazolinone derivative and herbicide comprising same as effective component thereof” (priority 2013, dated 2017).
